The test system of data set [1] is HBV. Kind of data set: Secretion of HBV viral particles from Hep G2.2.15 cells (Proteinase K/DNase method). The class given is cell-based, Hepatitis B virus. Conditions: 4.5 mM, 7 days, Hep G2 2.2.15 cells, FIG. 3. As for the experimental part:
Virus secretion into the media was detected by a method that would differentiate between enveloped and un-enveloped DNA. Glucosidase inhibitors reduce the secretion of enveloped virus. Enveloped virus is resistant to Proteinase K/Dnase treatment; un-enveloped virus is not. (+) or (−) indicates the addition of DNase. See text for more details. From left to right: Untreated; 3TC (3.5 μM); […] (4.5 mM).
Inhibition of the ER a-glucosidases inhibits the secretion of enveloped HBV. The first glycan processing events are the removal of the terminal glucose residues in the ER by α-glucosidase I and II (FIG. 2). The α-glucosidase inhibitor N-butyldeoxynojirimycin (NB-DNJ) has been used to study the role of glucose processing in several proteins including human immunodeficiency virus (HIV-1) gp120 (Fisher et al., 1995) and the enzyme tyrosinase which is involved in melanin biosynthesis (Petrescu et al., 1996). […] Hep G2 2.2.15 cells were either left untreated or treated with 3TC (3.5 μM) or the glucosidase inhibitor NB-DNJ (4.5 mM) and 7 days latter the amount of enveloped virus detected in the culture medium by a method that would differentiate between enveloped and un-enveloped virus (Wei et al., 1997). This method realizes upon the resistance of enveloped HBV to limited Proteinse K treatment (Wei et al., 1997). […]

A further data set relates to WHV. As to conditions: cited from earlier work.
The subject of the next data set is HBV M protein. The class given is cell-based. Conditions: for secretion of the M protein: indicated concentrations, three days, FIG. 4. The protocol: Hep G2 cells were transfected with an M only expression vector and the next day the cells divided equally into 6 well trays. Compound was added one day latter at the indicated concentrations and the media changed every two days. The presence of sub-viral particles in the medium was detected via the Abbott Diagnostics Auszyme Monoclonal Diagnostic Kit as per manufacture's directions. For Graph: Y-axis is the OD at 492. X-axis indicates the compounds or cells used in the assay.
Hep G2 cells transfected with the HBV M expression vector were treated with the glucosidase inhibitor NB-DNJ (4.5 mM and 6 days latter the amount of M protein associated with the culture medium (secreted) and the cells (retained) determined by ELISA. See text for more details. For graph: x-axis, Drug treatment and location of protein; for y-axis, % of HBV M protein as compared to untreated
Hep G2 cells were transfected with the M only expression vector and seeded as daughter flasks into 6 well trays. Following 4 days of treatment of glucosidase inhibitor (NB-DNJ (4.5 mM)), drug was either removed (in samples labels as —R) or left on as a control. Day 0 is the time in which drug was removed. […] Day 3 and Day 5 are days after drug removal. For Graph: Y-axis is the OD at 492. X-axis indicates the compounds or cells used in the assay. UN=untreated sample; Un-R is the untreated rebound sample; NB=N-butyl-DNJ; NB-R=N-butyl-DNJ rebound sample.
HBV M protein secretion is sensitive to glucosidase inhibition. Our previous work has determined that the secretion of HBV sub-viral particles containing the M protein was sensitive to glucosidase inhibition. (Mehta et al., 1997). That is, when Hep G2 2.215 cells were treated with the glucosidase inhibitor NB-DNJ, purified sub-viral particles appeared to lack the M protein. However, it was unclear if this was the result of the M protein's sensitivity to glucosidase inhibition or required some other viral factor. To test this hypothesis, an expression vector (pCMV-MS^−X) directs the expression of HBV M, but no other viral protein, was created. This “M only” expression vector was then used to determine if the M protein itself, in the absence of other viral functions, was sensitive to glucosidase inhibition. In addition, an expression vector, unable to express “M”, but able to express “S” was made on the same plasmid backbone as the “M” only vector, as was used as a control (pCMV-M^−SX). For these studies three imino sugars were used: N-butyl-DNJ, N-nonyl-DNJ and N-nonyl-DGJ. N-butyl-DNJ is our standard glucosidase inhibitor and has been used by several labs for over 10 years (Carlson et al.,1995, Block et al., 1994). […] Briefly, Hep G2 cells were transfected with the expression vectors pCMV HBV MS^−X and pCMV HBV M^−SX and subsequently seeded into fresh 6 well trays. The transfected cells were treated with the indicated concentrations of NB-DNJ, NN-DNJ or NN-DGJ (as a negative control) and three days latter the media analyzed for the presence of the HBV M or HBV S protein as described in Mehta et al, 2001. […] Fore example, concentrations of NN-DNJ which have no impact upon glycan inhibition, as determined by glycan analysis or α-1-acid-glycoprotein secretion, had no effect upon HBV M protein secretion (data not shown). In contrast to the effect of the glucosidase inhibitors on M protein secretion, the secretion of the HBV S protein was insensitive to either NB-DNJ or NN-DNJ providing further proof that the S protein is insensitive to glucosidase inhibition (data not shown; Block et al., 1994, Mehta et al., 1997, Werr & Prange, 1998). To determine if the secretion of the HBV M protein was prevented by another non-glucosidase mechanism, other compounds with the same alkyl side chain (tail) but altered imino sugar head groups, were synthesized. For example, NN-DGJ has the same chain length as NN-DNJ but is not a glucosidase inhibitor. […]

For a further data set, the system named is glucosidase. Kind of data set: Glucosidase / glycan processing inhibition in cells. Type of data set: cell-based.
Data set [2] relates to bovine viral diarrhea virus (BVDV). The data set is described as follows: BVDV in mammalian cells in tissue culture. Type of data set: cell-based. From the text: We have discovered that cytotoxicity resulting from exposure of mammalian cells in tissue culture to bovine viral diarrhea virus (BVDV) is prevented by addition of a glucosidase inhibitor to the tissue culture medium. The glucosidase inhibitors useful according to the present invention include, but are not limited to a derivative of 1,5-dideoxy-1,5-imino-D-glucitol (DNJ), in particular, N-butyl-DNJ (NBDNJ). […] Because BVDV is an accepted tissue culture model of hepatitis C virus (HCV) (Henzler, H.-J. and K. Kaiser (1998) Nature Biotech 16:1077-1078), the compositions and methods described herein for inhibiting morphogenesis of BVDV are also useful for inhibiting morphogenesis of HCV.
The substituents on the basic 1,5-dideoxy-1,5-imino-D-glucitol can influence the potency of the compound as an antiviral agent and additionally can preferentially target the molecule to one organ rather than another. […] Methods for comparing the potencies of various substituted compounds are provided in Example 1. […] Methods for determining preferential targeting properties of variously substituted DNJs is provided in Example 8 and FIG. 8 in U.S. Pat. No. 6,465,487.

The subject of data set [3] is HBV. As to conditions: cited from earlier work.
The subject of another data set is HIV. Conditions: relative to cells not exposed; cited from earlier work.
The test system of data set [4] is bovine viral diarrhea virus (BVDV). As to conditions: comparison of N-butyl and N-nonyl DNJ; U.S. Pat. No. 6,465,487; cited from earlier work.
Data set [5] concerns HBV. Conditions: chronic HBV patients; cited from earlier work.
Another data set deals with HCV. As to conditions: cited from earlier work.

The values below come from patent publication US20050053625A1, “Method of treating viral infections” (priority 2001, published 2005).

As to `OC[C@H]1NC[C@H](O)[C@@H](O)[C@@H]1O` [DNJ, 1,5-dideoxy-1,5-imino-D-glucitol], the “secretion of enveloped virus versus un-enveloped virus” value in the data set on HBV [1] was “inhibits the secretion of enveloped virus more effectively than un-enveloped virus”.
As to `Cc1cn([C@H]2O[C@@H](CO)[C@H](O)[C@H]2F)c(=O)[nH]c1=O` [L-FMAU, 1-(2-Fluro-5-Methy-B-L-Arabinofuranosyl)-Uracil], the “decrease in the amount of serum WHsAg” value in the data set with WHV (long term treatment) was 10 fold. In the data set on WHV (woodchucks, drug alone), the immune responses developed result was “limited cellular and humoral immune responses”.
Take `CCCCN1C[C@H](O)[C@@H](O)[C@H](O)[C@H]1CO` [NB-DNJ, N-butyl-1,5-dideoxy-1,5-imino-D-glucitol]: in the data set on HBV M protein (4.5 mM, 4 days, FIG. 6), the “amount of M protein in the culture medium after 4 days of treatment” value was “substantial decrease”. In addition, in the data set on HBV M protein (4.5 mM, 6 days, ELISA, FIG. 5), the “HBV M protein associated with the cells (retained)” value was “retention of the HBV M protein” and the “HBV M protein associated with the culture medium (secreted)” value is on record as “reduction in the amount of HBV M protein associated with the culture medium”. Also, the “level of M protein in the culture medium after compound removal” value in the data set with HBV M protein (after 4 days treatment, drug removed, FIG. 6) is on record as “remained depressed until the 5th day”. The “secretion of the M protein” value in the data set with HBV M protein is given as “prevented the secretion of the M protein”. Also, the “M protein secretion at lower concentrations” value in the data set on HBV M protein (lower concentrations, which inhibit lower levels of glucosidase) is listed as “able to inhibit M protein secretion”. The “effect on cell number or viability” value in the data set with HBV M protein (sustained reduction experiment, data not shown) is “not due to an effect on cell number or viability”. Moreover, in the data set with glucosidase (not shown or Tan et al, 1994), the “time to return of glucosidase enzyme function after removal of inhibitor” value is given as “less than 3 hours”. In addition, the “toxicity toward host cells” value in data set [2] (conditions inhibiting BVDV-induced cytotoxicity) is given as “little, if any, toxicity”. Besides, in data set [2] (tissue culture), the BVDV-induced cytotoxicity entry is reported as “inhibition of BVDV-induced cytotoxicity was achieved”. In addition, the “secretion of HBV viral particles” value with HBV [3] (Hep G2.2.15 cells) is reported as “prevents the secretion of HBV viral particles”. In addition, in the data set on HBV [3] (stable transfected HepG2 cells), the “egress of subviral particles” value was “does not prevent egress” and the “egress of the mature HBV virion” value is on record as “prevents egress”. Further, the “infectivity of virus particles released from HIV-infected cells” value with HIV is given as “greatly reduced”. The “potency in inhibiting the intracellular production of BVDV virus” value in data set [4] is “less potent”.
Take `CCCCCCCCCN1C[C@H](O)[C@@H](O)[C@@H](O)[C@H]1CO` [NN-DGJ, reference compound]: the “secretion of the M protein” value in the data set with HBV M protein is “but not NN-DGJ which does not inhibit glucosidase, reduces the amount of M detected in the medium”. In addition, the “glucosidase inhibition” value with glucosidase (negative control) is recorded as “does not inhibit glucosidase”.
With Alpha-interferon, the “treated patients achieving certain serological milestones” value in the data set on HBV [5] is 7-40%. In addition, the “patients with long-term improvement” value in the data set on HCV is recorded as 5%.
